Data as given in the NIST ThermoML archive (doi:10.1021/acs.jced.8b00601).
± gives the expanded uncertainty stated by the source.

Experiment: activity coefficient (dimensionless); of the first substance listed, at infinite dilution; xn = mol fraction of the nth substance listed
Details: 101.33 kPa, Liquid, Chromatography, x1 = 0

Compound | activity coefficient (313 K) | activity coefficient (323 K) | activity coefficient (333 K) | activity coefficient (343 K)
CCCCCCC [heptane] + O=S(=O)([N-]S(=O)(=O)C(F)(F)F)C(F)(F)F.O=S(=O)([N-]S(=O)(=O)C(F)(F)F)C(F)(F)F.O=S(=O)([N-]S(=O)(=O)C(F)(F)F)C(F)(F)F.c1ccc2cc(-n3cc[n+](Cc4cc(C[n+]5ccn(-c6ccc7ccccc7c6)c5)cc(C[n+]5ccn(-c6ccc7ccccc7c6)c5)c4)c3)ccc2c1 | 12.2 ± 1.3 | 10.1 ± 1.2 | 6.77 ± 0.82 | 6.03 ± 0.65
CCO [ethanol] + O=S(=O)([N-]S(=O)(=O)C(F)(F)F)C(F)(F)F.O=S(=O)([N-]S(=O)(=O)C(F)(F)F)C(F)(F)F.O=S(=O)([N-]S(=O)(=O)C(F)(F)F)C(F)(F)F.c1ccc2cc(-n3cc[n+](Cc4cc(C[n+]5ccn(-c6ccc7ccccc7c6)c5)cc(C[n+]5ccn(-c6ccc7ccccc7c6)c5)c4)c3)ccc2c1 | 0.927 ± 0.1 | 0.724 ± 0.082 | 0.611 ± 0.066 | 0.606 ± 0.064
